Experimental findings from US8158820B2, “Compounds” (AstraZeneca AB, priority 2003, dated 2012) are described below.

In this test the target is T1, CRTh2 (Homo sapiens, UniProt Q9Y5Y4).
T1 construct: expressed in transfected cells; host or cells: HEK cells (stably transfected, geneticin selection; membranes prepared)
T1 sequence (Q9Y5Y4 1-395): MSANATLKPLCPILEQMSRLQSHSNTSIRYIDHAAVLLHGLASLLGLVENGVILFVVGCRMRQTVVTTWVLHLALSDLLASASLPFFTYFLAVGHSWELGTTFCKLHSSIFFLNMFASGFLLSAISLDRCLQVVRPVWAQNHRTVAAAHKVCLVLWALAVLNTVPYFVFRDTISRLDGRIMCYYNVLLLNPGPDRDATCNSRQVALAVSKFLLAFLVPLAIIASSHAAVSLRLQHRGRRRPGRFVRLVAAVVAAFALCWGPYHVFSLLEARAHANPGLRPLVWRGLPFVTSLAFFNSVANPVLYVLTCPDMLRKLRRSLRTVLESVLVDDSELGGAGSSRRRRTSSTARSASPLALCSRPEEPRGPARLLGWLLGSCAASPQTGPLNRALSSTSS
Nature of the test: Ligand Binding Assay ([3H]PGD2, SPA beads, HEK cell membranes). Conditions: [3H]PGD2 binding to membranes of HEK cells expressing rhCRTh2/Gα16. The procedure: [^3H]PGD2 was purchased from Perkin Elmer Life Sciences with a specific activity of 100-210 Ci/mmol. All other chemicals were of analytical grade.
HEK cells expressing rhCRTh2/Gα16 were routinely maintained in DMEM containing 10% Foetal Bovine Serum (HyClone), 1 mg/ml geneticin, 2 mM L-glutamine and 1% non-essential amino acids. For the preparation of membranes, the adherent transfected HEKcells were grown to confluence in two layer tissue culture factories (Fisher, catalogue number TKT-170-070E). Maximal levels of receptor expression were induced by addition of […] sodium butyrate for the last 18 hours of culture. The adherent cells were washed once with phosphate buffered saline (PBS, 50 ml per cell factory) and detached by the addition of 50 ml per cell factory of ice-cold membrane homogenisation buffer [20 mM HEPES (pH 7.4), 0.1 mM dithiothreitol, 1 mM EDTA, 0.1 mM phenyl methyl sulphonyl fluoride and 100 μg/ml bacitracin]. […] The final pellet was re-suspended in 4 ml of membrane homogenisation buffer per cell factory used and the protein content determined. […]
All assays were performed in Corning clear bottomed, white 96-well NBS plates (Fisher). […] (The optimum coating concentrations were determined for each batch of membranes) The beads were pelleted by centrifugation (800×g for 7 minutes at 4° C.), washed once with assay buffer (50 mM HEPES pH 7.4 containing 5 mM magnesium chloride) and finally re-suspended in assay buffer at a bead concentration of 10 mg/ml.
Each assay contained 20 μl of 6.25 nM [^3H]PGD2, 20 μl membrane saturated SPA beads both in assay buffer and 10 μl of compound solution or 13,14-dihydro-15-keto prostaglandin D2 (DK-PGD2, for determination of non-specific binding, Cayman chemical company). […] The assay plate was incubated at room temperature for 2 hours and counted on a Wallac Microbeta liquid scintillation counter (1 minute per well).
As usually defined, the IC50 is the point on the concentration scale where inhibition reaches its midpoint. Low readings indicate greater potency in that assay, high ones weaker potency in that assay. `CS(=O)(=O)c1ccc(-c2cc(Cl)ccc2OCC(=O)O)cc1` [Example 9, {[5-Chloro-4′-(methylsulfonyl)biphenyl-2-yl]oxy}acetic acid]: the IC50 is 39.8 nM.

In turn, `CN(c1ncc(-c2cc(Cl)ccc2OCC(=O)O)cn1)S(C)(=O)=O` [Example 25, (4-Chloro-2-{2-[methyl(methylsulfonyl)amino]pyrimidin-5-yl}phenoxy)acetic acid] showed an IC50 of 10 nM. This IC50 is about 4-fold lower than that of the molecule before.

With `CNS(=O)(=O)c1ccc(-c2cc(C(F)(F)F)ccc2OCC(=O)O)cc1` [Example 133, [[4′-[(Methylamino)sulfonyl]-5-(trifluoromethyl)[1,1′-biphenyl]-2-yl]oxy]-acetic acid], the IC50 was 6.31 nM.
